Results as given in US6413967B1, “Inhibition of novel calcium entry pathway in electrically non-excitable cells acting as an anti-proliferative therapy” (The University of Virginia Patents Foundation, priority 1995, dated 2002).

How the values were obtained:
[1] = test system: VG Ca^2+ current in Jurkat cells; assay: perforated patch clamp, voltage gated (VG) Ca2+ current; assay type: cell-based, human; settings: for effect on the VG Ca^2+ current: amiloride 100 μM, MnCl2 300 μM, NiCl2 1 mM, W-7 alone (unstimulated current)
Description: (§1) All recordings were performed using the perforated patch method (Horn et al, J. Gen. Physiol. (1988) 92:145) of the gigaseal patch clamp technique (Hammil et al, Pflugers Arch (1981) 391:85) with microelectrodes of 5-10 megohm series resistance. In all solutions for voltage clamp, K^+ was replaced with Cs^+ to block outward K^+ currents (Fox et al, J. Physiol. (Lond.) (1987) 392:149). The bath solution contained (in mM): NaCl, 155; CsCl, 4.5; CaCl2, 2; MgCl2, 1; D-glucose, 5; HEPES, 10 (pH 7.4 with NaOH). The pipette solution contained (in mM): CsCl, 55; Cesium methanesulfonate, 70; CaCl2, 1; MgCl2, 7; HEPES, 10 (pH 7.3 with NaOH). Nystatin was made as a stock solution of 6 mg/100 μl DMSO, and 2 μl of the stock was added to 1 ml of the pipette solution for use. Both pipette and bath solutions were 290-300 mOsm. Experiments were performed on cells at room temperature using the Axopatch-1D patch clamp (Axon Instruments, Foster City, Calif.) after correction of junction potentials and leak subtraction. Records were low-pass filtered at 500 Hz, and the data were collected, stored and analyzed using the pClamp software program (Axon Instruments). For the non-voltage gated current traces, data is presented either as the tracing from a chart recorder or from the digital data in which the current was measured at 5 second intervals and plotted as individual points.

[2] = test system: NVG current in Jurkat cells; assay: perforated patch clamp, non-voltage gated (NVG) current; assay type: cell-based, human; settings: membrane potential −60 mV, 300 nM thapsigargin, amiloride 100 μM, MnCl2 300 μM, NiCl2 1 mM, W-7 30 μM, NDGA 10 μM
Description: as §1

[3] = test system: Ca^2+ entry pathway in Jurkat cells; settings: previously demonstrated (Haverstick et al 1993); cited from earlier work
[4] = test system: Ca^2+ entry pathway in Jurkat cells; assay: thapsigargin-stimulated Ca2+ entry measured with Ca2+-sensitive dyes (indo-1, fluo-3); assay type: cell-based, human; settings: 300 nM thapsigargin, amiloride 100 μM (fluo-3), Ni^2+ 1 mM, NDGA 10 μM (indo-1)
Description: Lymphocytes were suspended in culture medium at 37° C. for 1 h in the presence of 1 μM of the Ca^2+ indicator dye indo-1 /AM. Cells were washed twice in buffer A (140 mM NaCl, 3 mM KCl, 1 mM CaCl2, 1 mM MgCl2, 0.1% D-glucose, 1% FBS, 10 mM HEPES, pH 7.4) and were suspended at a final concentration of 1×10^6 cells/ml in buffer A. The excitation wavelength was 340 nm and emission was monitored at 398 nm in an SLM 8000 spectrofluorometer (SLM/Aminco, Urbana, Ill.), with the temperature maintained at 37° C. Data are plotted as relative fluorescence intensity at 398 nm as a measure of [Ca^2+]i. For FIG. 7, indo-1 emission was monitored at 398 nm and 480 nm and [Ca^2+]i was determined as described previously (Gray et al, J. Immunol (1987) 138:63; Haverstick et al, Mol. Biol. Cell (1993) 4:173).
Jurkat cells were loaded with indo-1/AM as described above. The excitation wavelength was 340 nm and emission was measured at 441 nm. The fluorescence of indo-1 at 441 nm is insensitive to changes in [Ca^2+]i (Sage et al, Biochem. J. (1989) 258:923) and is plotted as relative fluorescence intensity.
Because amiloride interferes with the fluorescence of indo-1 (Wacholtz et al, J. Immunol. (1992) 149:1912), fluo-3 was used to monitor [Ca^2+]i in the presence of amiloride. Jurkat cells were suspended in culture medium at 37° C. for 1 h in the presence of 1 μM fluo-3/AM and 1 mM probenecid to decrease dye leakage (DiVirgilio et al, Methods Cell Biol. (1989) 31:453). After two washes in buffer A, cells were suspended at a concentration of 1×10^6 cells/ml in buffer A with 1 mM probenecid and were maintained in a cuvette at 37° C. The excitation wavelength was 506 nm and the emission was monitored at 526 nm. Data are presented sa relative fluorescence intensity at 526 nm.

[5] = test system: [Ca^2+]i in Jurkat T cells; assay: receptor-stimulated Ca2+ influx in Jurkat T cells (anti-CD3 mAb OKT3); assay type: cell-based, human; settings: Homo sapiens, Jurkat; maximal [Ca^2+]i after anti-CD3 mAb OKT3; drug 1 min prior
Description: Initially, all drugs are screened using Jurkat T cells incubated with indo-1/AM as outlined below. In the event that there is an effect of the drug on the maximum [Ca^2+]i reached following treatment of the cells with the anti-CD3 mAb […], the drug is evaluated for any effects on the spectral characteristics of indo-1 as outlined in Haverstick and Gray, Mol. Biol. Cell (1993) 4:173. If there is an effect of the drug on the spectral characteristics of indo-1 , the drug is further examined for spectral effects on the combination of fura-red and fluo-3. If there is no effect of the drug on the fura-red/fluo-3 combination, the drug is examined for effects on the maximum [Ca^2+]i reached following OKT3 treatment of cells incubated with 5 μM fura-red and […] as outlined below.
Jurkat cells are incubated in RPMI-1640 plus 5% fbs in the presence of the acetoxymethyl ester of either indo-1 (1 μM) or the combination of fura-red (5 μM) with fluo-3 (1 μM) for one hour at 37° C. Cells are washed three times in buffer A [[…] 4-(2-hydroxyethyl)-1-piperazine ethanesulfonic acid (HEPES), pH 7.4, 3 MM KCl, 1 mM MgCl2, 1 mM CaCl2, 140 mM NaCl, 0.1% glucose] containing 1% fbs and suspended to a final concentration of 1×10^6/ml. Cells are then placed in the 37° C. jacketed cell holder of the SLM 8000C. Antigen receptor engagement is mimicked by the addition of the anti-CD3 monoclonal antibody OKT3 (Gray et al, J. Exp. Med. (1988) 167:1963; Gray et al, J. Immunol. 142:1631). The effect of drug added prior to receptor stimulation or at the plateau phase of Ca^2+ entry is determined as follows:
Prior drug: 10 or 30 μM drug @ 30 seconds, 1 μg/ml OKT3 at 90 seconds
Post drug: 1 μg/ml OKT3 at 30 second, 10 or 30 μM drug @ 120 seconds

Jurkat T cells = assay: Jurkat cell proliferation, tetrazolium dye; assay type: cell-based, human; settings: Homo sapiens, Jurkat; incubation 44 to 48 h; read-out: JURKAT prolif IC50
Description: (§2) The effect of various drugs on the proliferation of Jurkat T cells, MDA-468 human breast cancer cells and PC3 human prostate cancer cells was determined by incubating the cells with the indicated concentrations of drug for 48 hours. The number of viable cells remaining at the end of the incubation period was evaluated using the procedure outlined in Example 4.
(§3) Cells are plated in triplicate in a 96-well flat-bottomed plate (Jurkat: 5e4 cells/well in RPMI-1640 plus 5% fbs; MDA468: 2.5e4 per well in DMEM plus 5% fbs and 11 μg/ml insulin) in the absence (control) or presence of drug at 3, 10, 30, and 100 μM. An additional control of 100 μM drug in RPMI-1640 plus 5% fbs or DMEM plus 5% fbs and 11 μg/Ml insulin with no cells is included with each run to control for possible drug interactions with the dye. The plate is then placed in a 5% CO2 37° C. incubator for 44 to 48 hours. 20 μl of dye solution containing a tetrazolium dye (3-(4,5-dimethylthiazol-2-yl)-5-(3-carboxymethoxyphenyl)-2-(4-sulfophenyl)-2H-tetrazolium, Owen's reagent) plus coupling reagent (phenazine methosulfate) is added to each well, the plate is returned to the incubator, and the absorbance at 490 nm is read using an ELISA plate reader 3 to 4 h (Jurkat cells) or 2 to 3 h (MDA-468 cells) later. All data are presented as percent of control (no drug addition). With this protocol, it is possible to determine the effect of 5 drugs at 4 concentrations in a single 96-well plate as outlined below: […]

[6] = test system: MDA-468 human breast cancer cells; assay: MDA-468 cell proliferation, tetrazolium dye; assay type: cell-based; settings: Homo sapiens; incubation 44 to 48 h; read-out: MDA-468 prolif IC50
Description: as §2, §3

[7] = test system: [Ca^2+]i in MDA-468 cells; assay: EGF receptor-stimulated Ca2+ influx in MDA-468 cells; assay type: cell-based; settings: Homo sapiens; maximal [Ca^2+]i, Ca^2+ entry triggered by 50 ng/ml EGF
[8] = test system: human prostate cancer cell line PC3; assay: PC3 cell proliferation, tetrazolium dye; assay type: cell-based; settings: PC-3, 5×10^4 PC3 cells, 48 hours

IC50 [5] [µM] | IC50 (Jurkat T cells) [µM] | IC50 [6] [µM] | IC50 [7] [µM] | IC50 [8] [µM] | SMILES | effect on the VG Ca^2+ current [1] | effect on thapsigargin-mediated augmentation of the VG Ca^2+ current ([1]; drug added before 300 nM thapsigargin, W-7 30 μM) | effect on the thapsigargin-induced NVG current [2] | effect on Ca^2+ influx induced by thapsigargin, by Ca^2+-sensitive dyes [3] | effect on thapsigargin-stimulated Ca^2+ entry [4] | effect on the thapsigargin-induced NVG current ([2]; listed as Amiloride)
 |  |  |  |  | NCCCCCCNS(=O)(=O)c1cccc2c(Cl)cccc12 [W-7, N-(6-aminohexyl)-5-chloro-1-naphthalenesulfonamide] | not affected | blocked the augmentation | not affected | eliminates |  | 
 |  |  |  |  | [Cl][Ni][Cl] [Ni^2+, NiCl2] | eliminated the VG Ca^2+ current |  | blocked |  | blocked Ca^2+ entry | 
25 | 90 | 20 | 5 |  | CN(C)CCCN1c2ccccc2Sc2ccc(Cl)cc21 [chloropromazine, 2-chloro-10-[3-dimethylaminopropyl]-phenothiazine] |  |  |  |  |  | 
 |  |  |  |  | N=C(N)NC(=O)c1nc(Cl)c(N)nc1N [amiloride] | not blocked |  | virtually eliminated |  | no effect | completely inhibited
65 | 3.5 | 30 | 105 | ~40 | CC(CN1c2ccccc2Sc2ccccc21)N(C)C (stereo not drawn) [promethazine, N,N,α-trimethyl-10H -phenothiazine-10-ethanamine] |  |  |  |  |  | 
